Measured values reported in patent US20070099822A1, “Regulation of tissue mineralization and phosphate metabolism by asarm peptides” (priority 2003, published 2007).
Entries after “also recorded” stand apart in the source; their conditions may differ. Like-named read-outs stand apart in the source and are kept apart here. Square brackets hold non-standard residues; d marks the D form. Peptide text beside a SMILES is read from it. pS = N[C@@H](COP(=O)(O)O)C(=O)O

How the values were obtained:
[1] = test system: male ICR Swiss mice; assay: Example VI: subcutaneous PO4-ASARM-peptide or etidronate, calcein fluorescence and Sanderson osteoid staining; assay type: in vivo; conditions: PO4-ASARM-peptide 2 mg/kg/day
Protocol: Subcutaneous administration of PO4-ASARM-peptide, etidronate (EHDP), and calcein. Three separate groups of male ICR Swiss mice (4-5 weeks) were subcutaneously injected once a day (9:00AM), for 12 days except for days 6 and 7 with 50 μL solutions of either (1) Eitidronate (EHDP) (10 mg/kg/day); (2) PO4-ASARM-peptide (2 mg/kg/day); or (3) vehicle consisting of 5 mM HEPES pH 7.4/150 mM NaCL/0.1% BSA. The synthetic PO4-ASARM-peptide was dissolved in vehicle (1.0 mg/mL). Etidronate was first dissolved in 150 mM NaCl and then buffered to pH 7.5 with 1M NaOH to give a 5 mg/mL solution. The 10 mg/kg/day doses of etidronate have previously been reported to inhibit mineralization in rats and were used as positive controls (Trechsel, et al., Am J Physiol 232(3):E298-305, 1977; Bonjour, et al., Am J Physiol 229(2):402-8, 1975). All three groups were subcutaneously injected with calcein (20 mg/kg/day) on days 3, 5, […]. The degree of calcein fluorescence and/or fluorescence-quenching is an indicator of mineralization status (see next section). The calcein injections when given were administered 1 h after the daily injections of PO4-ASARM-peptide, EHDP or vehicle. Animals were then terminated humanely and calvariae plus femurs/tibia were fixed in 70% ethanol (non-decalcified). After fluorescence imaging (see FIG. 35) calvariae were processed in plastic and stained with Sanderson's stain (see below). Five animals per group were used for statistical analysis of fluorescence quenching and histological Sanderson staining.
Calcein fluorescence in mice calvariae, hind-limbs & fluor-imager analysis of mineralization. A Bio-Rad (Hercules, Calif.) FluorImager^max fluorescent imager was used to simultaneously image all the samples from each of the 3 groups (15 animals; five animals per group). This consisted of 10 tibia/femurs and 5 calvariae per group. Samples were placed on top of the FluorImager plate contained within a light-tight box. Ultra-violet light was used to generate calcein-mediated epi-fluorescence and the fluorescent-image was captured on a −40° C., peltier-cooled, 1,340×1040 pixel CCD resolution, CCD digital-camera. Quantitation of fluorescence was carried out using Quantity-1 (Bio-Rad, Hercules, Calif.) fluorescence-software. Pixel saturation was prevented by internal software calibration and exposure adjustment. All fluorescence readings were thus accurately quantitative and non-saturating. Photo-micrographic UV fluorescent analysis of calvarial cross sections embedded in plastic and mounted as slides (<100 micrometer sections) was also undertaken and a description of the fixation and processing is given in the next section.
Sanderson-staining and fluorescence detection of calvarial osteoid & mineralized bone. Staining of non-decalcified calvarial sections was performed using the method described by Sanderson and Bachus (Staining technique to differentiate mineralized and demineralized bone in ground sections, J Histotechnol 20(2): 119-122, 1997). This technique provides differential staining between unmineralized osteoid and mineralized bone. Prior to staining, calvariae were dissected and attached tissue removed. Calvariae were then placed in 70% ethanol for further fixation as described by Sanderson and Bachus (supra). After fixing and processing undecalcified calvariae were embedded in plastic (LR-white acrylic resin (London Resin Co., Reading, England)) as previously described (Garrett, et al., Selective inhibitors of the osteoblast proteasome stimulate bone formation in vivo and in vitro, J Clin Invest 111(11):1771-1782, 2003). Plastic embedded sections were ground to <100 micrometers using a specialized grinding-pestle as described by Donath and Breuner (A method for the study of undecalcified bones and teeth with attached soft tissues. The Sage-Schliff (sawing and grinding) technique, J Oral Pathol 11(4):318-26, 1982). […]

[2] = molecular target: T1, MEPE-PHEX interaction (Homo sapiens, UniProt P78562); assay: Surface plasmon resonance, peptide solution competition of secPHEX-MEPE binding
T1 construct: to generate a soluble, secreted form of PHEX; made in house; host or cells: secPHEX: mammalian cells (gift, University of Montreal); MEPE: S. frugiperda insect cells
T1 sequence (P78562 46-749 limits assumed): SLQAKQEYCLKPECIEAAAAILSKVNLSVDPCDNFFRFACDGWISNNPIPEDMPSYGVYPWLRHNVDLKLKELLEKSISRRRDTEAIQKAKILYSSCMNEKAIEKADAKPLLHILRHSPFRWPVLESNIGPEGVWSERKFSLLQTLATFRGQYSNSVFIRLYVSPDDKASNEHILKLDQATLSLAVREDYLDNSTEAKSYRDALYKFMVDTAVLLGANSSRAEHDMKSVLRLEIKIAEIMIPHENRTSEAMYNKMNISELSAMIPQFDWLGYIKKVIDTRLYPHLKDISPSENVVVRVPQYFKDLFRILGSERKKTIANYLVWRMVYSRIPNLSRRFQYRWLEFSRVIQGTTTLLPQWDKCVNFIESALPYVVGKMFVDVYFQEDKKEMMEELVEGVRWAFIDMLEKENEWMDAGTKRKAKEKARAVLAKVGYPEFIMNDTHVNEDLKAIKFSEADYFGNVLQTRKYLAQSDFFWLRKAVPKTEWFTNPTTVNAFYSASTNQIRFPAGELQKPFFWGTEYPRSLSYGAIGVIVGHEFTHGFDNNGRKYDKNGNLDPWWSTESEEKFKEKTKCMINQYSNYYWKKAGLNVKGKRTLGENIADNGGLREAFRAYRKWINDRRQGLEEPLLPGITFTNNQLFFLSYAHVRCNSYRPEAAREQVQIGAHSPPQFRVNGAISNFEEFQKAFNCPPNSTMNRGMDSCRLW
Source text: Surface Plasmon Resonance: Synthetic peptides & competitive PHEX-MEPE binding studies. For these experiments CM-5 chips containing flow-cells immobilized with MEPE, PHEX and IgG ligands at 6000 RU were used. Just prior to SPR injection, stock solution of specific-peptide (as defined for each experiment; see Table 1), and dissolved in analyte buffer (HBS-P—Zn) […] The following equation was used to compute KDapp values: RU=Bmax/inhib×(peptide(μM))/KDapp+(peptide(μM)). The Bmax/inh value represents the maximal percentage inhibition change in RU (i.e., PHEX-MEPE binding) relative to the “non-peptide” control (0% inhibition of binding), using a constant analyte flow-solution of secPHEX of 250 nM against immobilized MEPE ligand at 6000 RU. […] The control MEPE-RGD peptide had no effect on MEPE-PHEX interactions.

[3] = test system: mouse osteoblast cell-line 2T3; assay: Mineralized bone matrix formation assay (von Kossa), BMP2-induced; assay type: cell-based; conditions: 2T3 cells, BMP2 100 ng/mL; Hu-MEPE 10-800 ng/mL, ASARM-peptide 60 and 300 ng/mL, control peptide 300 ng/mL
Source text: Mineralized bone matrix formation assay. A mouse osteoblast cell-line (2T3-cells) were monitored using a mineralized matrix formation assay as described by Bhargava et al. (Ultrastructural analysis of bone nodules formed in vitro by isolated fetal rat calvaria cells. Bone 9:155-63, 1988) and cultured as described previously (Bhargava et al., supra; Chen et al. Differential roles for bone morphogenetic protein (BMP) receptor type IB and IA in differentiation and specification of mesenchymal precursor cells to osteoblast and adipocyte lineages. J Cell Biol 142:295-305, 1998; and Zhao, et al. Bone morphogenetic protein receptor signaling is necessary for normal murine postnatal bone formation. J Cell Biol 157:1049-60, 2002). Mineralization of the murine osteoblastic 2T3 cell-line has been extensively studied using physical techniques, electron microscopy and histological techniques. This cell line (2T3) undergoes exogenous BMP2-induced mineralized-matrix indistinguishable from normal bone-mineral hydroxyapatite in-vitro (Bhargava et al., supra; Chen et al., supra; and Zhao et al., supra). The cells were plated in 24-well culture plates at density of 2×10^4 cells/well and cultured with minimal essential medium (MEM) supplemented with 10% FCS. When the cells reached confluency (day 0), the medium was changed to MEM containing 5% FCS, 100 μg/mL ascorbic acid and 5 mM β-glycerol phosphate with or without 100 ng/mL of BMP-2. The effects of Hu-MEPE, MEPE ASARM-peptide and control peptide at different doses (see results section) in the absence and presence of BMP2 were measured using the von Kossa stain for mineralization. The medium was changed every other day and fresh reagents were added. Von Kossa stain of mineralized bone matrix was performed as follows. The cell cultures were washed with PBS twice, fixed in phosphate buffered formalin for 10 min, and then washed with water, and serially dehydrated in 70%, 95%, and 100% ethanol, twice each and air dried. The plates were rehydrated from 100% to 95% to 80% ethanol to water before staining. The water was removed, a 2% silver nitrate solution was added, and the plates were exposed to sunlight for 20 min, after which the plates were rinsed with water. 5% sodium thiosulfate was added for 3 min and the plates were then rinsed with water. The modified van Gieson stain was then used as a counterstain after the von Kossa stain. The unmineralized collagen matrix can be recognized by the yellow/red van Gieson stain. The acid fuchsin solution (5 part of 1% acid fuchsin, 95 part of picric acid, and 0.25 part of 12 M HCl) was added for 5 min. The plates were washed with water, and then 2×95% ethanol and 2×100% ethanol, and dried for image analysis. The area of von Kossa stained matrix was quantitated as previously described (Chen et al., supra). Briefly matrix was quantified by automated image analysis using a video analysis program (Jandel Scientific, San Rafael Calif.) and also a Bio-Rad (Hercules, Calif.) Quantity-1 image analysis capture program. A video screen camera (CCD/RGB; Sony Corp., Park Ridge, N.J.) linked to a microscope (model BH2; Olympus Corp., Precision Instruments Division, Lake Success, N.Y.) equipped with metallurgical lens was used to image plates.

Bmax/inh, maximal percentage-inhibition of MEPE-PHEX binding ([2]; 250 nM secPHEX, MEPE 6000 RU) [%]	Kd ([2]; 250 nM secPHEX, MEPE 6000 RU, read-out: apparent KDapp, solution competition of MEPE-PHEX binding) [µM]	Kd ([2]; apparent KDapp, solution competition of secPHEX-MEPE binding, 250 nM secPHEX, MEPE 6000 RU (FIG. 34 legend), heading: apparent KDapp, solution competition of secPHEX-MEPE binding) [µM]	Molecule	tibiae-femurs fluorescence-signal reduction relative to vehicle [1] [%]	increase of osteoid layer thickness relative to vehicle ([1]; etidronate 10 mg/kg/day) [fold]	percentage quenching of calvarial calcein fluorescence relative to vehicle ([1]; etidronate 10 mg/kg/day) [%]	calvariae calcein fluorescence ([1]; etidronate 10 mg/kg/day, s.c. 12 days, vehicle 1100.5)	calvarial osteoid relative thickness (Sanderson staining) ([1]; etidronate 10 mg/kg/day, vehicle 2.3)	tibiae-femurs calcein fluorescent intensity ([1]; vehicle 268.52)	inhibition of MEPE-PHEX interaction ([2]; peptide pre-mixed with secPHEX, MEPE-RGD up to 85 μM)	effect on BMP2-mediated mineralization (von Kossa staining) [3]
68	15	15	N=C(N)NCCC[C@H](N)C(=O)N[C@@H](CC(=O)O)C(=O)N[C@@H](CC(=O)O)C(=O)N[C@@H](CO)C(=O)N[C@@H](CO)C(=O)N[C@@H](CCC(=O)O)C(=O)N[C@@H](CO)C(=O)N[C@@H](CO)C(=O)N[C@@H](CC(=O)O)C(=O)N[C@@H](CO)C(=O)NCC(=O)N[C@@H](COP(=O)(O)O)C(=O)N[C@@H](CO)C(=O)N[C@@H](COP(=O)(O)O)C(=O)N[C@@H](CCC(=O)O)C(=O)N[C@@H](COP(=O)(O)O)C(=O)N[C@@H](CC(=O)O)C(=O)NCC(=O)N[C@@H](CC(=O)O)C(=O)O [PO4-ASARM-peptide, RDDSSESSDSG(Sp)S(Sp)E(Sp)DGD] (H-RDDSSESSDSG[pS]S[pS]E[pS]DGD-OH)	44.5	3.5	62	568.7 fluorescent intensity units	8.0	148.9	able to inhibit; also recorded: dramatic dose-dependent inhibition	–
–	–	–	CGSGYTDLQERGDNDISPFSGDGQPF (Homo sapien) [control peptide, reference compound]	–	–	–	–	–	–	–	failed to elicit any changes in mineralization
